The supplement of paper PMC10307832

Assays:
Test in all cases: relative viability (nuclei count vs DMSO), 5 days (fraction); higher = more cells survive
Tosedostat + Trametinib = compound: CC(C)C[C@@H](C(=O)N[C@H](C(=O)OC1CCCC1)c1ccccc1)[C@H](O)C(=O)NO [Tosedostat] + CC(=O)Nc1cccc(-n2c(=O)n(C3CC3)c(=O)c3c(Nc4ccc(I)cc4F)n(C)c(=O)c(C)c32)c1 [Trametinib] (partner 0.02 µM)
Outline: (§1)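 A single step with final 0.05% Triton X-100, 1% formaldehyde and 1 ug/ml Hoechst fixed the cells and stained nuclei 5 days after treatment. Lung cancer cell lines in 1536-well plates had been treated by pin tool the day after seeding with one drug alone or a fixed anchor-drug dose plus five library-drug doses (not always all listed) in √10 steps, and nuclei were counted on 4× images. Relative viability is the ratio of nuclei in treated wells to nuclei in vehicle wells, taken as the median of duplicate plates.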

Tosedostat + Phenformin = compound: CC(C)C[C@@H](C(=O)N[C@H](C(=O)OC1CCCC1)c1ccccc1)[C@H](O)C(=O)NO [Tosedostat] + N=C(N)NC(=N)NCCc1ccccc1 [Phenformin] (partner 250 µM)
Outline: as §1

[1] = compound: CC1=NN=C(O1)C2=NN=C(C=C2)N3CCC(CC3)OC4=C(C=CC(=C4)F)Cl + O=C(CCCCCCC(=O)Nc1ccccc1)NO [Vorinostat] (partner 1 µM)
Outline: as §1

Tosedostat + Alpelisib = compound: CC(C)C[C@@H](C(=O)N[C@H](C(=O)OC1CCCC1)c1ccccc1)[C@H](O)C(=O)NO [Tosedostat] + Cc1nc(NC(=O)N2CCC[C@H]2C(N)=O)sc1-c1ccnc(C(C)(C)C(F)(F)F)c1 [Alpelisib] (partner 2 µM)
Outline: as §1

| Cell Line | relative viability (Tosedostat + Trametinib; first compound 0.02 µM) | relative viability (Tosedostat + Trametinib; first compound 0.06325 µM) | relative viability (Tosedostat + Trametinib; first compound 0.2 µM) | relative viability (Tosedostat + Trametinib; first compound 0.6325 µM) | relative viability (Tosedostat + Trametinib; first compound 2 µM) | relative viability (Tosedostat + Phenformin; first compound 0.02 µM) | relative viability (Tosedostat + Phenformin; first compound 0.06325 µM) | relative viability (Tosedostat + Phenformin; first compound 0.2 µM) | relative viability (Tosedostat + Phenformin; first compound 0.6325 µM) | relative viability (Tosedostat + Phenformin; first compound 2 µM) | relative viability ([1]; first compound 0.253 µM) | relative viability ([1]; first compound 0.8 µM) | relative viability ([1]; first compound 2.53 µM) | relative viability ([1]; first compound 8 µM) | relative viability (Tosedostat + Alpelisib; first compound 0.02 µM) | relative viability (Tosedostat + Alpelisib; first compound 0.06325 µM) | relative viability (Tosedostat + Alpelisib; first compound 0.2 µM) | relative viability (Tosedostat + Alpelisib; first compound 0.6325 µM) | relative viability (Tosedostat + Alpelisib; first compound 2 µM) |
| --- | --- | --- | --- | --- | --- | --- | --- | --- | --- | --- | --- | --- | --- | --- | --- | --- | --- | --- | --- |
| HCC-15 | 0.394 | 0.353 | 0.408 | 0.363 | 0.305 | 0.512 | 0.46 | 0.432 | 0.348 | 0.32 | 0.534 | 0.431 | 0.511 | 0.554 | 0.848 | 0.934 | 0.863 | 0.808 | 0.651 |
| HCC-44 | 1.21 | 1.11 | 1.09 | 1.13 | 1.17 | 0.19 | 0.221 | 0.183 | 0.111 | 0.117 | 0.584 | 0.708 | 0.698 | 0.423 | 0.684 | 0.874 | 0.767 | 0.886 | 0.544 |
| HCC-78 | 0.729 | 0.722 | 0.664 | 0.795 | 0.659 | 0.644 | 0.68 | 0.637 | 0.671 | 0.752 | 0.425 | 0.48 | 0.393 | 0.381 | 0.294 | 0.338 | 0.257 | 0.336 | 0.454 |
| HCC-366 | 0.36 | 0.358 | 0.322 | 0.311 | 0.374 | 0.573 | 0.623 | 0.638 | 0.532 | 0.6 | 0.0995 | 0.112 | 0.127 | 0.0801 | 0.331 | 0.357 | 0.376 | 0.382 | 0.342 |
| HCC-827 | 0.545 | 0.571 | 0.552 | 0.505 | 0.518 | 0.401 | 0.443 | 0.397 | 0.355 | 0.301 | 0.382 | 0.207 | 0.322 | 0.377 | 0.826 | 0.934 | 1.02 | 0.842 | 0.875 |
| HOP-62 | 0.41 | 0.442 | 0.404 | 0.495 | 0.451 | 0.663 | 0.615 | 0.685 | 0.569 | 0.437 | 0.543 | 0.243 | 0.287 | 0.203 | 0.92 | 1.01 | 0.697 | 0.984 | 0.744 |
| IA-LM | – | – | – | – | – | – | – | – | – | – | 0.402 | 0.296 | 0.435 | 0.364 | 0.735 | 0.845 | 0.714 | 0.656 | 0.617 |
| LC-2-ad | 0.971 | 0.893 | 0.885 | 0.917 | 0.967 | 0.692 | 0.555 | 0.56 | 0.438 | 0.508 | 0.321 | 0.254 | 0.322 | 0.284 | 0.932 | 0.885 | 0.852 | 0.889 | 0.74 |
| LCLC-97TM1 | 0.19 | 0.202 | 0.232 | 0.177 | 0.161 | 0.402 | 0.433 | 0.445 | 0.403 | 0.439 | 0.649 | – | 0.522 | 0.573 | 0.199 | – | – | 0.247 | 0.211 |
| NCI-H522 | 0.716 | 0.796 | 0.752 | 0.895 | 0.78 | 1.31 | 0.592 | 0.659 | 0.624 | 0.58 | 0.958 | 0.925 | 0.964 | 0.805 | – | – | – | – | – |
| NCI-H1299 | – | – | – | – | – | – | – | – | – | – | – | – | – | – | 1.13 | 1.02 | 1.03 | 1.03 | 0.906 |
| NCI-H1563 | – | – | – | – | – | 0.653 | 0.703 | 0.662 | 0.722 | 0.65 | – | – | – | – | 0.879 | 1 | 0.956 | 1.16 | 1.1 |
| NCI-H1623 | – | – | – | – | – | 0.558 | 0.609 | 0.622 | 0.519 | 0.618 | – | – | – | – | – | – | – | – | – |
| NCI-H1648 | 0.417 | 0.447 | 0.476 | 0.477 | 0.336 | – | – | – | – | – | 0.376 | 0.417 | 0.5 | 0.513 | – | – | – | – | – |
| NCI-H1650 | 0.79 | 0.627 | 0.552 | 0.533 | 0.479 | 0.484 | 0.501 | 0.399 | 0.399 | 0.281 | 0.323 | 0.289 | 0.37 | 0.333 | – | – | – | – | – |
| NCI-H1703 | – | – | – | – | – | – | – | – | – | – | – | – | – | – | 0.265 | 0.274 | 0.302 | 0.329 | 0.31 |
| NCI-H1792 | 0.4 | 0.417 | 0.4 | 0.42 | 0.479 | 0.243 | 0.472 | 0.445 | 0.404 | 0.31 | – | – | – | – | 0.761 | 0.745 | 0.649 | 0.602 | 0.67 |
| NCI-H2342 | 0.808 | 0.797 | 0.93 | 0.903 | 0.919 | 0.513 | 0.733 | 0.558 | 0.494 | 0.442 | 0.551 | 0.551 | 0.583 | 0.436 | – | – | – | – | – |
| SW 900 | 0.696 | 0.754 | 0.777 | 0.639 | 0.609 | 0.496 | 0.606 | 0.478 | 0.367 | 0.417 | – | 0.287 | 0.418 | 0.28 | – | – | – | – | – |
